Measured values from PubChem BioAssay (NCI).
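How tested: cells in 96-well plates exposed to compound for 48 hours at five concentrations. At the TGI there is no net growth.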

Key:
Assay in all cases: growth of human tumour cells (NCI), 48 h
[1] = system: RXF 393 renal
[2] = system: SK-MEL-28 melanoma
[3] = system: OVCAR-4 ovarian
[4] = system: SNB-75 CNS
[5] = system: SF-268 CNS
[6] = system: NCI-H460 lung
[7] = system: NCI-H226 lung
[8] = system: OVCAR-8 ovarian
[9] = system: UACC-257 melanoma
[10] = system: IGROV1 ovarian
[11] = system: MCF7 breast
[12] = system: MALME-3M melanoma
[13] = system: PC-3 prostate
[14] = system: SR leukemia
[15] = system: HCT-116 colon
[16] = system: RPMI-8226 leukemia
[17] = system: MDA-MB-435
[18] = system: K-562 leukemia
[19] = system: BT-549 breast
[20] = system: HS 578T breast
[21] = system: TK-10 renal
[22] = system: SF-539 CNS
[23] = system: MDA-MB-231 breast
[24] = system: HOP-62 NSCLC
[25] = system: 786-0 renal
[26] = system: CAKI-1 renal
[27] = system: NCI/ADR-RES ovarian
[28] = system: U251 CNS
[29] = system: NCI-H522 lung
[30] = system: MOLT-4 leukemia
[31] = system: SF-295 CNS
[32] = system: MDA-N
[33] = system: ACHN renal
[34] = system: SW-620 colon
[35] = system: M14 melanoma
[36] = system: SN12C renal
[37] = system: DU-145 prostate
[38] = system: HL-60(TB) leukemia
[39] = system: UO-31 renal
[40] = system: SK-MEL-5 melanoma
[41] = system: UACC-62 melanoma
[42] = system: A498 renal
[43] = system: NCI-H23 lung
[44] = system: OVCAR-5 ovarian
[45] = system: OVCAR-3 ovarian
[46] = system: SK-MEL-2 melanoma
[47] = system: T-47D breast
[48] = system: SNB-19 CNS
[49] = system: A549 NSCLC
[50] = system: EKVX NSCLC
[51] = system: HT29 colon
[52] = system: KM12 colon
[53] = system: LOX IMVI melanoma
[54] = system: COLO 205 colon
[55] = system: HOP-92 NSCLC
[56] = system: HCT-15 colon
[57] = system: HCC-2998 colon
[58] = system: SK-OV-3 ovarian

## O=C(CSc1nc2ccccc2c2ccccc12)c1ccccc1
[1]
  TGI: > 100 µM
[2]
  TGI: > 100 µM
[3]
  TGI: > 100 µM
[4]
  TGI: 57.9 µM
[5]
  TGI: > 100 µM
[6]
  TGI: > 100 µM
[7]
  TGI: > 100 µM
[8]
  TGI: > 100 µM
[9]
  TGI: > 100 µM
[10]
  TGI: > 100 µM
[11]
  TGI: > 100 µM
[12]
  TGI: > 100 µM
[13]
  TGI: > 100 µM
[14]
  TGI: > 100 µM
[15]
  TGI: > 100 µM
[16]
  TGI: > 100 µM
[17]
  TGI: > 100 µM
[18]
  TGI: > 100 µM
[19]
  TGI: > 100 µM
[20]
  TGI: 0.0967 µM
[21]
  TGI: > 100 µM
[22]
  TGI: > 100 µM
[23]
  TGI: > 100 µM
[24]
  TGI: > 100 µM
[25]
  TGI: > 100 µM
[26]
  TGI: > 100 µM
[27]
  TGI: > 100 µM
[28]
  TGI: > 100 µM
[29]
  TGI: > 100 µM
[30]
  TGI: > 100 µM
[31]
  TGI: > 100 µM
[32]
  TGI: > 100 µM
[33]
  TGI: > 100 µM
[34]
  TGI: > 100 µM
[35]
  TGI: > 100 µM
[36]
  TGI: > 100 µM
[37]
  TGI: > 100 µM
[38]
  TGI: > 100 µM
[39]
  TGI: > 100 µM
[40]
  TGI: > 100 µM
[41]
  TGI: > 100 µM
[42]
  TGI: > 100 µM
[43]
  TGI: > 100 µM
[44]
  TGI: > 100 µM
[45]
  TGI: > 100 µM
[46]
  TGI: > 100 µM
[47]
  TGI: > 100 µM
[48]
  TGI: > 100 µM
[49]
  TGI: > 100 µM
[50]
  TGI: > 100 µM
[51]
  TGI: > 100 µM
[52]
  TGI: > 100 µM
[53]
  TGI: > 100 µM
[54]
  TGI: > 100 µM
[55]
  TGI: > 100 µM
[56]
  TGI: > 100 µM

## O=C1C(Cl)C(c2cc3cc(Br)ccc3nc2Cl)N1c1ccc(F)c(Cl)c1 (configuration not stated)
[1]
  TGI: 17.3 µM
[2]
  TGI: 34.5 µM
[3]
  TGI: 4.96 µM
[4]
  TGI: 21.4 µM
[5]
  TGI: 14.2 µM
[6]
  TGI: 24.4 µM
[7]
  TGI: 40.2 µM
[8]
  TGI: 54 µM
[9]
  TGI: 25.7 µM
[57]
  TGI: 21.7 µM
[10]
  TGI: 2.14 µM
[11]
  TGI: 20.1 µM
[12]
  TGI: 22.8 µM
[13]
  TGI: 34.2 µM
[14]
  TGI: 2.61 µM
[15]
  TGI: 18.9 µM
[16]
  TGI: 5.23 µM
[17]
  TGI: 17.7 µM
[18]
  TGI: 17 µM
[19]
  TGI: 25.9 µM
[20]
  TGI: 75 µM
[21]
  TGI: 17 µM
[22]
  TGI: 3.66 µM
[23]
  TGI: 24.8 µM
[24]
  TGI: 6.39 µM
[25]
  TGI: 2.25 µM
[27]
  TGI: 29.8 µM
[28]
  TGI: 12.5 µM
[29]
  TGI: 0.719 µM
[30]
  TGI: 4.74 µM
[31]
  TGI: 23.4 µM
[32]
  TGI: 22.3 µM
[33]
  TGI: 24.2 µM
[58]
  TGI: 26.9 µM
[34]
  TGI: 33 µM
[35]
  TGI: 21.8 µM
[36]
  TGI: 20.5 µM
[37]
  TGI: 22.1 µM
[38]
  TGI: 18.6 µM
[39]
  TGI: 0.29 µM
[40]
  TGI: 19.8 µM
[41]
  TGI: 21.2 µM
[42]
  TGI: 15.1 µM
[43]
  TGI: 19 µM
[44]
  TGI: 24.8 µM
[45]
  TGI: 12.8 µM
[46]
  TGI: 23.5 µM
[47]
  TGI: 27.4 µM
[48]
  TGI: 23.1 µM
[49]
  TGI: 43.5 µM
[50]
  TGI: 3.62 µM
[51]
  TGI: 26.5 µM
[52]
  TGI: 7.77 µM
[54]
  TGI: 22.5 µM
[55]
  TGI: 2.72 µM
[56]
  TGI: 27.6 µM
